This note sets out measurements from US20230024302A1, “2,3,5-TRISUBSTITUTED PYRAZOLO[1,5-A]PYRIMIDINE COMPOUNDS” (Arcus Biosciences, Inc., priority 2019, published 2023).

SMILES strings stand for the structures. pIC50: −log10 of the molar value. Read-outs that look alike come from different tables or passages of the source. A value given as a limit tells only on which side of the number the result lay.

In one assay the target is T1, PI3Kγ (Homo sapiens, UniProt P48736).
T1 construct: host or cells: THP-1
T1 sequence (P48736 whole entry): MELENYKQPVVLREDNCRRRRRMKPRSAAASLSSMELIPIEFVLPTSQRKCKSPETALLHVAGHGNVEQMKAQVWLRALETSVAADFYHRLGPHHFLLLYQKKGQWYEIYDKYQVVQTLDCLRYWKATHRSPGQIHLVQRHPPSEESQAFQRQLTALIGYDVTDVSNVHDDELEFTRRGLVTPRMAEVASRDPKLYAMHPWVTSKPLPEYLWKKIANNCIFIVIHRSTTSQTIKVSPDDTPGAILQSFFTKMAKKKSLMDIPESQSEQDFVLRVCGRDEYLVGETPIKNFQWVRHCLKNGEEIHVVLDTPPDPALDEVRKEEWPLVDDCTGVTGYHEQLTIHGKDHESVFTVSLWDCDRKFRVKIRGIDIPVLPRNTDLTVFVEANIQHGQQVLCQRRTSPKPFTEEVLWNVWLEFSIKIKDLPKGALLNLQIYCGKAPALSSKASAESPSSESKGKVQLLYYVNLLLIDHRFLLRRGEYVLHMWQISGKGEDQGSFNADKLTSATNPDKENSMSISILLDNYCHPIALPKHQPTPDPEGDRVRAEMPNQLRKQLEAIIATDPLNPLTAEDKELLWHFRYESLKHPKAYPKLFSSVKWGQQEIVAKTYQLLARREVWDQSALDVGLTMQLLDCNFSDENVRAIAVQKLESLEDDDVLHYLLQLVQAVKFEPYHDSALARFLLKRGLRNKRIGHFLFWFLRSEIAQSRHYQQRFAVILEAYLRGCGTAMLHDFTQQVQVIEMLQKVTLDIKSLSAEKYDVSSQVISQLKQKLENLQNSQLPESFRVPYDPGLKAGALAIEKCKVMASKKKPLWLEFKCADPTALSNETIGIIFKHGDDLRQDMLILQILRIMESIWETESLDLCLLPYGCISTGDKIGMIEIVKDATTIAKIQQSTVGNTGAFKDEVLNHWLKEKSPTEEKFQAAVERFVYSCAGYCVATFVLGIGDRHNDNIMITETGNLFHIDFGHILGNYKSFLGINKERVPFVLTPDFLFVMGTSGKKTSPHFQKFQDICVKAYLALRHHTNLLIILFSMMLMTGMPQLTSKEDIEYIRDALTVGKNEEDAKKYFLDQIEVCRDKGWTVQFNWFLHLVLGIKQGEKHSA
As to the kind of experiment: PI3Kγ cellular assay in THP-1 cells (AKT pS473 AlphaLISA). In kind it is cell-based. In outline:
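Endogenous AKT S473 phosphorylation, detected by AlphaLISA in lysates, serves as the PI3Kγ activity read-out in stimulated, serum-starved THP-1 cells (1.8×10^5/well).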

Another assay has as its target T2, PI3Kγ (p120γ) (Homo sapiens, UniProt P48736).
T2 construct: purchased Promega V1761
Put plainly: Inhibition of PI3K kinase activity (ADP Glo), PI3Kγ. Conditions: read-out: biochemical potency (PI3Kγ IC50). In short, it runs like this:
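IC50 values come from a 4-parameter nonlinear fit of ADP-Glo luminescence, which measures ADP produced as PIP2 is phosphorylated to PIP3. The p120γ enzyme (2× stock 8 nM) sat with compound 1 h at rt before substrate (2× stocks: 50 μM ATP, 0.1 mg/ml PIP2) was added. Phosphorylation then proceeded 60 min at rt.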

[1] abbreviates: Table 1, rhMCP-1 stimulated AKT pS473, read-out: cellular potency (PI3Kγ IC50).
Where [2] appears, read: Table 2, rhMCP-1 stimulated AKT pS473, read-out: cellular potency (PI3Kγ IC50).
Setting [3] is: Table 6, rhMCP-1 stimulated AKT pS473, read-out: cellular potency (PI3Kγ IC50).
[4] abbreviates: AKT pS473, read-out: cellular potency (PI3Kγ IC50).

T2 sequence (P48736 whole entry): as above

Regarding `C[C@@H](C1CC1)N1Cc2cc(-c3ccn4nc(N)c(C(=O)Nc5cccnc5)c4n3)cc(C(F)(F)F)c2C1=O` [Example 70, (S)-2-Amino-5-(2-(1-cyclopropylethyl)-1-oxo-7-(trifluoromethyl)isoindolin-5-yl)-N-(pyridin-3-yl)pyrazolo[1,5-a]pyrimidine-3-carboxamide], the pIC50 (in general, the negative decadic logarithm of the IC50, by convention in mol/L) was > 7.00 at PI3Kγ (setting [1]) and > 7.00 at PI3Kγ (p120γ) (Table 1, p120γ).
Regarding `C[C@@H](C1CC1)N1Cc2cc(-c3ccn4nc(N)c(C(=O)NC[C@H]5C[C@H](O)C5)c4n3)cc(NS(C)(=O)=O)c2C1=O` [Example 85, 2-Amino-5-{2-[(1S)-1-cyclopropylethyl]-7-methanesulfonamido-1-oxo-2,3-dihydro-1H-isoindol-5-yl}-N-{[trans-3-hydroxycyclobutyl]methyl}pyrazolo[1,5-a]pyrimidine-3-carboxamide], the pIC50 at PI3Kγ (setting [1]) is > 7.00; on PI3Kγ (p120γ) (Table 1, p120γ) it was > 7.00.
Consider `Cc1cc(-c2ccn3nc(N)c(C(=O)N[C@@H]4CCC[C@@H](O)C4)c3n2)cc2c1C(=O)N([C@@H](C)C1CC1)C2` [Example 11, 2-Amino-5-{2-[(1S)-1-cyclopropylethyl]-7-methyl-1-oxo-2,3-dihydro-1H-isoindol-5-yl}-N-[(1R,3R)-3-hydroxycyclohexyl]pyrazolo[1,5-a]pyrimidine-3-carboxamide], for which the negative-log IC50 (pIC50) was > 7.00 at PI3Kγ (setting [1]) and > 7.00 at PI3Kγ (p120γ) (Table 1, p120γ).
`Cc1cc(-c2ccn3nc(N)c(C(=O)NCc4ccn(C)n4)c3n2)cc2c1C(=O)N([C@@H](C)C1CC1)C2` [Example 207]: the pIC50 was 6.00 to 7.00 at PI3Kγ (setting [2]) and > 7.00 at PI3Kγ (p120γ) (Table 2, p120γ).
Regarding `C[C@@H](C1CC1)N1Cc2cc(-c3ccn4nc(N)c(C(=O)NC5COC5)c4n3)cc(NS(C)(=O)=O)c2C1=O` [Example 78, 2-Amino-5-{2-[(1S)-1-cyclopropylethyl]-7-methanesulfonamido-1-oxo-2,3-dihydro-1H-isoindol-5-yl}-N-(oxetan-3-yl)pyrazolo[1,5-a]pyrimidine-3-carboxamide], the pIC50 at PI3Kγ (setting [1]) is > 7.00; at PI3Kγ (p120γ) (Table 1, p120γ), > 7.00.
Turning to `C[C@H](N1Cc2cc(-c3ccn4nc(N)c(C(=O)NC5CC5)c4n3)cc(NS(C)(=O)=O)c2C1=O)C(F)(F)F` [Example 115, 2-Amino-N-cyclopropyl-5-{7-methanesulfonamido-1-oxo-2-[(2S)-1,1,1-trifluoropropan-2-yl]-2,3-dihydro-1H-isoindol-5-yl}pyrazolo[1,5-a]pyrimidine-3-carboxamide], the pIC50 at PI3Kγ (setting [1]) was > 7.00; on PI3Kγ (p120γ) (Table 1, p120γ), > 7.00.
Regarding `Cc1cc(-c2ccn3nc(N)c(C(=O)N[C@@H]4C[C@@H]4F)c3n2)cc2c1C(=O)N([C@@H](C)C1CC1)C2` [Example 263], the pIC50 is 6.00 to 7.00 on PI3Kγ (setting [2]) and > 7.00 on PI3Kγ (p120γ) (Table 2, p120γ).
As to `C[C@@H](C1CC1)N1Cc2cc(-c3ccn4nc(N)c(C(=O)N[C@H]5CC[C@H](C6(O)CC6)CC5)c4n3)cc(OC(F)(F)F)c2C1=O` [Example 30, 2-Amino-5-(2-((S)-1-cyclopropylethyl)-1-oxo-7-(trifluoromethoxy)isoindolin-5-yl)-N-(trans-4-(1-hydroxycyclopropyl)cyclohexyl)pyrazolo[1,5-a]pyrimidine-3-carboxamide], the pIC50 is > 7.00 on PI3Kγ (setting [1]) and > 7.00 at PI3Kγ (p120γ) (Table 1, p120γ).
Take `Cc1cc(-c2ccn3nc(N)c(C(=O)NC4COC4)c3n2)cc2c1C(=O)N([C@@H](C)C1CC1)C2` [Example 180]: the pIC50 was 6.00 to 7.00 at PI3Kγ (setting [2]) and > 7.00 at PI3Kγ (p120γ) (Table 2, p120γ).
Turning to `C[C@@H](C1CC1)N1Cc2cc(-c3ccn4nc(N)c(C(=O)NC5CC5)c4n3)cc(C(C)(C)O)c2C1=O` [Example 170, 2-Amino-N-cyclopropyl-5-{2-[(1S)-1-cyclopropylethyl]-7-(2-hydroxypropan-2-yl)-1-oxo-2,3-dihydro-1H-isoindol-5-yl}pyrazolo[1,5-a]pyrimidine-3-carboxamide], the pIC50 was > 7.00 on PI3Kγ (setting [1]) and > 7.00 on PI3Kγ (p120γ) (Table 1, p120γ).
Consider `C[C@H](CO)NC(=O)c1c(N)nn2ccc(-c3cc4c(c(OC(F)(F)F)c3)C(=O)N([C@@H](C)C(F)(F)F)C4)nc12` [Example 27, 2-Amino-N-[(2R)-1-hydroxypropan-2-yl]-5-[1-oxo-7-(trifluoromethoxy)-2-[(2S)-1,1,1-trifluoropropan-2-yl]-2,3-dihydro-1H-isoindol-5-yl]pyrazolo[1,5-a]pyrimidine-3-carboxamide], for which the pIC50 on PI3Kγ (setting [1]) was > 7.00; at PI3Kγ (p120γ) (Table 1, p120γ) it was > 7.00.
With `COc1ccncc1NC(=O)c1c(N)nn2ccc(-c3cc4c(c(OC(F)(F)F)c3)C(=O)N([C@@H](C)C3CC3)C4)nc12` [Example 48, (S)-2-Amino-5-(2-(1-cyclopropylethyl)-1-oxo-7-(trifluoromethoxy)isoindolin-5-yl)-N-(4-methoxypyridin-3-yl)pyrazolo[1,5-a]pyrimidine-3-carboxamide], the pIC50 on PI3Kγ (setting [1]) is > 7.00; at PI3Kγ (p120γ) (Table 1, p120γ), > 7.00.
On to `C[C@@H](C1CC1)N1Cc2cc(-c3ccn4nc(N)c(C(=O)N[C@@H]5CCC[C@H]5O)c4n3)cc(NS(C)(=O)=O)c2C1=O` [Example 72, 2-Amino-5-{2-[(1S)-1-cyclopropylethyl]-7-methanesulfonamido-1-oxo-2,3-dihydro-1H-isoindol-5-yl}-N-[(1R,2R)-2-hydroxycyclopentyl]pyrazolo[1,5-a]pyrimidine-3-carboxamide], for which the pIC50 on PI3Kγ (setting [1]) is > 7.00; at PI3Kγ (p120γ) (Table 1, p120γ), > 7.00.
For the compound `C[C@@H](C1CC1)N1Cc2cc(-c3ccn4nc(N)c(C(=O)N[C@H]5CC[C@H](CO)CC5)c4n3)cc(C(F)(F)F)c2C1=O` [Example 60, 2-Amino-5-(2-((S)-1-cyclopropylethyl)-1-oxo-7-(trifluoromethyl)isoindolin-5-yl)-N-(trans-4-(hydroxymethyl)cyclohexyl)pyrazolo[1,5-a]pyrimidine-3-carboxamide], the pIC50 is > 7.00 at PI3Kγ (setting [1]) and > 7.00 at PI3Kγ (p120γ) (Table 1, p120γ).
With `C[C@@H](C1CC1)N1Cc2cc(-c3ccn4nc(N)c(C(=O)Nc5ccc(C(C)(C)O)cc5)c4n3)cc(OC(F)(F)F)c2C1=O` [Example 419], the pIC50 at PI3Kγ (setting [3]) was 6.00 to 7.00; at PI3Kγ (p120γ) (Table 6, p120γ), > 7.00.
On the same counts, the results for `C[C@@H](C1CC1)N1Cc2cc(-c3ccn4nc(N)c(C(=O)N[C@H]5C[C@](C)(O)C5)c4n3)cc(OC(F)F)c2C1=O` [Example 430] are > 7.00 and > 7.00.
On to `C[C@H](N1Cc2cc(-c3ccn4nc(N)c(C(=O)Nc5cccnc5)c4n3)cc(NS(C)(=O)=O)c2C1=O)C(F)(F)F` [Example 401], for which the pIC50 was 6.00 to 7.00 on PI3Kγ (setting [4]) and > 7.00 on PI3Kγ (p120γ).
As for `C[C@@H](C1CC1)N1Cc2cc(-c3ccn4nc(N)c(C(=O)Nc5ccc(C#N)cc5)c4n3)cc(NS(C)(=O)=O)c2C1=O` [Example 393], the pIC50 was 6.00 to 7.00 at PI3Kγ (setting [4]) and > 7.00 on PI3Kγ (p120γ).
For `C[C@@H](C1CC1)N1Cc2cc(-c3ccn4nc(N)c(C(N)=O)c4n3)cc(OC(F)(F)F)c2C1=O` [Example 39, 5-{2-[(S)-1-Cyclopropylethyl]-7-trifluoromethoxy-5-isoindolinoyl}-2-amino-1,4,7a-triaza-3-indenecarboxamide], the pIC50 at PI3Kγ (setting [1]) is > 7.00; on PI3Kγ (p120γ) (Table 1, p120γ), > 7.00.
Turning to `CC[C@H](C)NC(=O)c1c(N)nn2ccc(-c3cc4c(c(C(F)(F)F)c3)C(=O)N([C@@H](C)C3CC3)C4)nc12` [Example 343], the pIC50 is 6.00 to 7.00 at PI3Kγ (Table 3, rhMCP-1 stimulated AKT pS473, read-out: cellular potency (PI3Kγ IC50)) and > 7.00 at PI3Kγ (p120γ) (Table 3, p120γ).
On to `Cc1cc(-c2ccn3nc(N)c(C(=O)N[C@@H](C)C4CC4)c3n2)cc2c1C(=O)N([C@@H](C)C1CC1)C2` [Example 220], for which the pIC50 at PI3Kγ (setting [2]) was 6.00 to 7.00; on PI3Kγ (p120γ) (Table 2, p120γ), > 7.00.
Consider `C[C@@H](C1CC1)N1Cc2cc(-c3ccn4nc(N)c(C(=O)N[C@@H]5COC[C@H]5O)c4n3)cc(NS(C)(=O)=O)c2C1=O` [Example 88, 2-Amino-5-{2-[(1S)-1-cyclopropylethyl]-7-methanesulfonamido-1-oxo-2,3-dihydro-1H-isoindol-5-yl}-N-[(3R,4S)-4-hydroxyoxolan-3-yl]pyrazolo[1,5-a]pyrimidine-3-carboxamide], for which the pIC50 at PI3Kγ (setting [1]) is > 7.00; at PI3Kγ (p120γ) (Table 1, p120γ), > 7.00.
Turning to `CS(=O)(=O)Nc1cc(-c2ccn3nc(N)c(C(=O)NC4CC4)c3n2)cc2c1C(=O)N([C@H](C1CC1)C(F)(F)F)C2` [Example 129, 2-Amino-N-cyclopropyl-5-{2-[(1R)-1-cyclopropyl-2,2,2-trifluoroethyl]-7-methanesulfonamido-1-oxo-2,3-dihydro-1H-isoindol-5-yl}pyrazolo[1,5-a]pyrimidine-3-carboxamide], the pIC50 at PI3Kγ (setting [1]) is > 7.00; at PI3Kγ (p120γ) (Table 1, p120γ), > 7.00.
As for `Cc1cc(-c2ccn3nc(N)c(C(=O)N[C@H]4c5ccccc5C[C@@H]4O)c3n2)cc2c1C(=O)N([C@@H](C)C1CC1)C2` [Example 272], the pIC50 on PI3Kγ (setting [2]) was < 6.00; at PI3Kγ (p120γ) (Table 2, p120γ) it was > 7.00.
As to `Cc1cc(-c2ccn3nc(N)c(C(=O)NC4CS(=O)(=O)C4)c3n2)cc2c1C(=O)N([C@@H](C)C1CC1)C2` [Example 241], the pIC50 was 6.00 to 7.00 at PI3Kγ (setting [2]) and > 7.00 on PI3Kγ (p120γ) (Table 2, p120γ).
On the same counts, the results for `Cc1cc(-c2ccn3nc(N)c(C(=O)NC(C)CO)c3n2)cc2c1C(=O)N([C@H](C)c1cccnc1)C2` (stereo partly drawn) [Example 332] are < 6.00 and > 7.00.
On the same counts, the results for `Cc1cc(-c2ccn3nc(N)c(C(=O)N[C@H]4C[C@@](C)(O)C4)c3n2)cc2c1C(=O)N([C@@H](C)C1CC1)C2` [Example 196] are 6.00 to 7.00 and > 7.00.
